# Results as given in patent publication US20230201174A1, “COMBINATION OF FINERENONE AND A SGLT2 INHIBITOR FOR THE TREATMENT AND/OR PREVENTION OF CARDIOVASCULAR AND/OR RENAL DISEASES” (BAYER AKTIENGESELLSCHAFT, priority 2020, published 2023).
# Experiments:
# [1] = test system: Zucker diabetic fatty (ZDF) rats; test: In vivo assay for detecting natriuretic activity in chronically treated Zucker diabetic fatty rats; parameters: species or system rat; settings: for Urinary Glucose concentration / Urinary K+ concentration / Urinary Na+ concentration / Urinary Volume/ body weight: Table 3, 24 h urine, mean ± SEM; for Urinary Glucose concentration / Urinary K+ concentration / Urinary Na+ concentration / Urinary Volume/ body weight / urinary sodium excretion higher in comparison to solvent control group A: ZDF rats treated 9 weeks; for influence on urinary glucose vs solvent, in words / influence on urinary potassium vs solvent, in words / influence on urinary sodium vs solvent, in words / influence on urinary volume vs solvent, in words: ZDF rats, chronic monotherapy 3 and 10 mg/kg/day, 9 weeks
# Excerpt: The Zucker diabetic fatty (ZDF) rat has a missense mutation in the gene coding the leptin receptor (fa/fa) and spontaneously develops insulin resistance, type 2 diabetes mellitus (T2DM), hyperlipidemia, moderate hypertension, and obesity, as well as progressive renal injury. Male homozygous animals develop diabetes mellitus from week 7 to 19 which is reflected in marked hyperglycemia. In addition to diabetic cardiac lesions (e.g. hypertrophy), renal pathology develops with proteinuria, mesangial expansion, macrophage infiltration, and interstitial fibrosis. Heterozygous animals are useful non-diabetic control animals since they develop neither obesity nor insulin resistance.
# Male 6-7 weeks old obese (fa/fa) Zucker rats (Charles River) were placed on a high energy diet (Purina Rodent LabDiet 5008, PMI Nutrition. Richmond. Ind.) and were randomized to treatment groups or solvent group when the animals were hyperglycemic. Rats (n=14-16/group) received either solvent [ethanol/Solutol/H2O (10/40/50)] or test compounds in solvent once daily applied to (fa/fa) animals for 4 to 12 weeks.
# During the experiment, the systolic blood pressure (determined by tail cuff), urine parameters (e.g. protein, glucose, electrolytes, creatinine, urea and uric acid) and blood plasma parameters (e.g. electrolytes, glucose, creatinine, urea and uric acid) were determined at regular intervals.
# Histopathology is performed with cardiac and renal tissue from animals of treatment groups and placebo groups.
# In this comparison, six different administrations were performed:
# Group A received the solvent [ethanol/Solutol/H2O (10/40/50)] only. This group serves as control group.
# Groups B and C received two increasing dosages of empagliflozin (SGLT2 inhibitor) only. It serves to detect the effects of the monotherapy with empagliflozin (SGLT2 inhibitor).
# Groups D and E received increasing dosages of finerenone only. It serves to detect the effect of the monotherapy with finerenone.
# Group F received a combination of the low dosages of empagliflozin (SGLT2 inhibitor) and finerenone, respectively. It serves to detect the effect of the combined therapy with finerenone and empagliflozin (SGLT2 inhibitor) (combination according to the invention).
# (§1) After the treatment, the urinary volume, urinary glucose, urinary sodium and potassium concentrations were measured.
# [2] = test system: hypertensive and proteinuric L-NAME treated renin-transgenic (mRen2)27 rats; test: Non-diabetic cardiorenal rat model: L-NAME treated renin-transgenic (mRen2)27 rats; settings: up to 7 weeks
# Method: Cardiorenal morbidity and mortality was studied in hypertensive and proteinuric L-NAME (20 mg/L) treated renin-transgenic (mRen2)27 rats. […] Key outcome parameters included mortality, blood pressure, proteinuria, kidney histology and gene expression.
# Female TGR(mRen2)27 renin rats aged 10 to 20 weeks are randomized to different pharmacological treatment groups and a placebo group. In addition, the nitrogen monoxide synthase inhibitor L-NAME is administered via the drinking water in a concentration of 20 to 100 mg/l. During the entire experiment, drinking water and feed are available ad libitum to the animals. The substances are administered via the feed or daily by gavage for 4-10 weeks. Animals treated in the same way but receiving either only the solvent or the feed without test substance serve as placebo group. During the experiment, the systolic blood pressure is determined at regular intervals using a tail cuff, and proteinuria (expressed as ratio of urinary protein concentration per urinary creatinine concentration) and urine electrolyte composition are determined by collecting the urine in metabolic cages, and mortality is registered on a daily base.
# The urine volume per collection time was determined separately for each animal, and the concentration of urinary glucose and electrolyte ions excreted in the urine was measured by standard methods by a clinical-chemical analyzer system (ADVIA 2400, Siemens). The urine was typically collected for 24 hours in metabolic cages.
# [3] = test system: Wistar rats with activated renin-angiotensin-aldosterone system; test: In vivo assay for detecting natriuretic activity in conscious rats with activated RAAS; parameters: species or system rat; settings: for Urinary Glucose concentration / Urinary K+ concentration / Urinary Na+ concentration / Urinary Volume/ body weight: 24 h urine, mean ± SEM
# Method: Wistar rats (ca. 250-500 g body weight) were kept with free access to feed (Altromin) and drinking water. […] This sodium-reduced feed causes an activation of the RAAS in the animals during the 3 days run-in phase and therefore mimics a neuroendocrine activation which is characteristic for cardiorenal diseases. […] At the start of the test, the substance to be tested was administered by means of gavage in a volume of 2-3 ml/kg of body weight of a suitable solvent PEG400). Control animals received only solvent (‘S’ or solvent in table 2 below). Controls and substance tests were carried out in parallel on the same day. Control groups and substance-dose groups each consisted of 6 to 10 animals. During the test, the urine excreted by the animals was continuously collected in a receiver on the base of the cage.
# In this comparison, eight different administrations were performed (cf. groups A to H):
# Group A received the solvent (PEG400) only. This group serves as control group.
# Groups B, C and D received three increasing dosages of empagliflozin (SGLT2 inhibitor) only. It serves to detect the effects of the monotherapy with SGLT2 inhibitor.
# Group E received a finerenone only. It serves to detect the effect of the monotherapy with finerenone.
# Groups F, G and H received finerenone and the three doses of SGLT2 inhibitor in combination, respectively. It serves to detect the effect of the combined therapy with finerenone and empagliflozin (SGLT2 inhibitor) (combination according to the invention).
# as §1
# [4] = test system: healthy volunteers; settings: dose-dependently induced during the first 24 h; cited from earlier work
# [5] = Table 2, monotherapy 1 mg/kg oral
# [6] = Table 2 study, monotherapy: empagliflozin 1, 3, 10 mg/kg, finerenone 1 mg/kg
# [7] = Table 4, monotherapy 1 mg/kg oral
# [8] = Table 4 study, monotherapy: canagliflozin 1 and 3 mg/kg, finerenone 1 mg/kg
# [9] = Table 5, monotherapy 1 mg/kg oral
# [10] = Table 5 study, monotherapy: dapagliflozin 0.03 and 0.3 mg/kg, finerenone 1 mg/kg
# [11] = Table 5 study, monotherapy: dapagliflozin all doses (0.03, 0.3, 3 mg/kg), finerenone 1 mg/kg
# [12] = Table 2, monotherapy 3 mg/kg oral
# [13] = Table 2, monotherapy 10 mg/kg oral
# [14] = Table 5, monotherapy 0.03 mg/kg oral
# [15] = Table 5, monotherapy 0.3 mg/kg oral
# [16] = Table 5, monotherapy 3 mg/kg oral
# [17] = Table 5 study, monotherapy 3 mg/kg
smiles,measurement,setting,value
"CCOc1ncc(C)c2c1[C@H](c1ccc(C#N)cc1OC)C(C(N)=O)=C(C)N2 [finerenone, (S)-4-(4-cyano-2-methoxyphenyl)-5-ethoxy-2,8-dimethyl-1,4-dihydro-1,6-naphthyridin-3-carboxamide]",Urinary Glucose concentration,[1]; monotherapy 3 mg/kg,291.98 ± 19.11 mmol
same,Urinary K+ concentration,[1]; monotherapy 3 mg/kg,1.94 ± 0.14 mmol
same,Urinary Na+ concentration,[1]; monotherapy 3 mg/kg,1.39 ± 0.12 mmol
same,Urinary Volume/ body weight,[1]; monotherapy 3 mg/kg,0.08184 ± 0.01199 L/kg
same,Urinary Glucose concentration,[1]; monotherapy 10 mg/kg,272.62 ± 22.51 mmol
same,Urinary K+ concentration,[1]; monotherapy 10 mg/kg,1.75 ± 0.06 mmol
same,Urinary Na+ concentration,[1]; monotherapy 10 mg/kg,1.30 ± 0.08 mmol
same,Urinary Volume/ body weight,[1]; monotherapy 10 mg/kg,0.05682 ± 0.00259 L/kg
same,urinary sodium excretion higher in comparison to solvent control group A,[1]; monotherapy 3 mg/kg,20.1%
same,"influence on urinary glucose vs solvent, in words",[1],no influence
same,"influence on urinary potassium vs solvent, in words",[1],no influence
same,"influence on urinary sodium vs solvent, in words",[1],no influence
same,"influence on urinary volume vs solvent, in words",[1],no influence
same,proteinuria reduction,[2]; 1 mg/kg once daily orally,−27%
same,proteinuria reduction,[2]; 3 mg/kg once daily orally,−87%
same,"renal histology parameters / renal lesions, in words",[2]; once daily orally,comparable protection from renal lesions at higher dosages
same,"systolic blood pressure, in words",[2]; once daily orally,significantly decreased
same,Urinary Glucose concentration,[3]; [5],b.d.l.
same,Urinary K+ concentration,[3]; [5],1.46 ± 0.12 mmol
same,Urinary Na+ concentration,[3]; [5],0.43 ± 0.03 mmol
same,Urinary Volume/ body weight,[3]; [5],0.0219 ± 0.00186 L/kg
same,"influence on urinary glucose, in words",[3]; [6],no influence
same,"influence on urinary potassium, in words",[3]; [6],no influence
same,"influence on urinary sodium, in words",[3]; [6],increase
same,"influence on urinary volume, in words",[3]; [6],no influence
same,Urinary Glucose concentration,[3]; [7],b.d.l.
same,Urinary K+ concentration,[3]; [7],1.76 ± 0.11 mmol
same,Urinary Na+ concentration,[3]; [7],0.27 ± 0.06 mmol
same,Urinary Volume/ body weight,[3]; [7],0.02932 ± 0.00294 L/kg
same,"influence on urinary potassium, in words",[3]; [8],no influence
same,"influence on urinary sodium, in words",[3]; [8],weak increase
same,"influence on urinary volume, in words",[3]; [8],no influence
same,"influence on urinary glucose, in words","[3]; Table 4 study, monotherapy: canagliflozin all doses (1, 3, 10 mg/kg), finerenone 1 mg/kg",no influence
same,Urinary Glucose concentration,[3]; [9],b.d.l.
same,Urinary K+ concentration,[3]; [9],1.84 ± 0.10 mmol
same,Urinary Na+ concentration,[3]; [9],0.33 ± 0.43 mmol
same,Urinary Volume/ body weight,[3]; [9],0.02344 ± 0.00162 L/kg
same,"influence on urinary potassium, in words",[3]; [10],no influence
same,"influence on urinary sodium, in words",[3]; [10],increase
same,"influence on urinary volume, in words",[3]; [10],no influence
same,"influence on urinary glucose, in words",[3]; [11],no influence
"OC[C@H]1O[C@@H](c2ccc(Cl)c(Cc3ccc(O[C@H]4CCOC4)cc3)c2)[C@H](O)[C@@H](O)[C@@H]1O [empagliflozin, (2S,3R,4R,5S,6R)-2-[4-chloro-3-[[4-[(3S)-oxolan-3-yl]oxyphenyl]methyl]phenyl]-6-(hydroxymethyl)oxane-3,4,5-triol]",Urinary Glucose concentration,[1]; monotherapy 3 mg/kg,321.55 ± 22.78 mmol
same,Urinary K+ concentration,[1]; monotherapy 3 mg/kg,2.22 ± 0.13 mmol
same,Urinary Na+ concentration,[1]; monotherapy 3 mg/kg,1.47 ± 0.10 mmol
same,Urinary Volume/ body weight,[1]; monotherapy 3 mg/kg,0.09998 ± 0.00712 L/kg
same,Urinary Glucose concentration,[1]; monotherapy 10 mg/kg,317.16 ± 25.10 mmol
same,Urinary K+ concentration,[1]; monotherapy 10 mg/kg,2.64 ± 0.20 mmol
same,Urinary Na+ concentration,[1]; monotherapy 10 mg/kg,2.05 ± 0.27 mmol
same,Urinary Volume/ body weight,[1]; monotherapy 10 mg/kg,0.11038 ± 0.00455 L/kg
same,urinary sodium excretion higher in comparison to solvent control group A,[1]; monotherapy 3 mg/kg,27.2%
same,"influence on urinary glucose vs solvent, in words",[1],increases
same,"influence on urinary potassium vs solvent, in words",[1],increases
same,"influence on urinary sodium vs solvent, in words",[1],increases
same,"influence on urinary volume vs solvent, in words",[1],increases
same,proteinuria reduction,[2]; 3 mg/kg once daily orally,−38%
same,proteinuria reduction,[2]; 10 mg/kg once daily orally,−64%
same,"glucosuric action, in words",[2]; once daily orally,strongly glucosoric
same,"renal histology parameters / renal lesions, in words",[2]; once daily orally,comparable protection from renal lesions at higher dosages
same,Urinary Glucose concentration,[3]; [5],0.34 ± 0.10 mmol
same,Urinary K+ concentration,[3]; [5],1.66 ± 0.11 mmol
same,Urinary Volume/ body weight,[3]; [5],0.0278 ± 0.00358 L/kg
same,Urinary Glucose concentration,[3]; [12],1.21 ± 0.21 mmol
same,Urinary K+ concentration,[3]; [12],1.74 ± 0.15 mmol
same,Urinary Na+ concentration,[3]; [12],0.13 ± 0.02 mmol
same,Urinary Volume/ body weight,[3]; [12],0.02296 ± 0.00275 L/kg
same,Urinary Glucose concentration,[3]; [13],4.26 ± 0.59 mmol
same,Urinary K+ concentration,[3]; [13],1.85 ± 0.11 mmol
same,Urinary Na+ concentration,[3]; [13],0.17 ± 0.03 mmol
same,Urinary Volume/ body weight,[3]; [13],0.02845 ± 0.00191 L/kg
same,"influence on urinary glucose, in words",[3]; [6],dose-dependent and strong increase
same,"influence on urinary potassium, in words",[3]; [6],no influence
same,"influence on urinary sodium, in words",[3]; [6],no influence
same,"influence on urinary volume, in words",[3]; [6],no influence
"CCOc1ccc(Cc2cc([C@@H]3O[C@H](CO)[C@@H](O)[C@H](O)[C@H]3O)ccc2Cl)cc1 [dapagliflozin, (2S,3R,4R,5S,6R)-2-[4-chloro-3-[(4-ethoxyphenyl)methyl]phenyl]-6-(hydroxymethyl)oxane-3,4,5-triol]",Urinary Glucose concentration,[3]; [14],0.72 ± 0.18 mmol
same,Urinary K+ concentration,[3]; [14],2.21 ± 0.16 mmol
same,Urinary Na+ concentration,[3]; [14],0.19 ± 0.05 mmol
same,Urinary Volume/ body weight,[3]; [14],0.03917 ± 0.00408 L/kg
same,Urinary Glucose concentration,[3]; [15],5.26 ± 0.29 mmol
same,Urinary K+ concentration,[3]; [15],2.43 ± 0.07 mmol
same,Urinary Na+ concentration,[3]; [15],0.19 ± 0.04 mmol
same,Urinary Volume/ body weight,[3]; [15],0.03884 ± 0.00394 L/kg
same,Urinary Glucose concentration,[3]; [16],9.71 ± 0.36 mmol
same,Urinary K+ concentration,[3]; [16],2.34 ± 0.10 mmol
same,Urinary Na+ concentration,[3]; [16],0.29 ± 0.05 mmol
same,Urinary Volume/ body weight,[3]; [16],0.04872 ± 0.00153 L/kg
same,"influence on urinary sodium, in words",[3]; [17],increase
same,"influence on urinary volume, in words",[3]; [17],increase
same,"influence on urinary potassium, in words",[3]; [10],no influence
same,"influence on urinary sodium, in words",[3]; [10],no influence
same,"influence on urinary volume, in words",[3]; [10],no influence
same,"influence on urinary glucose, in words",[3]; [11],strong increase
same,"natriuresis, in words",[4],returned to baseline after 13 days of intervention
